{
  "source": "ChEMBL document CHEMBL1158276",
  "about": "“Synthesis of 5-(3-Hydroxypropyl)-7-methoxy-2-(3-methoxy-4-hydroxyphenyl)-3- benzo[ b ]furancarbaldehyde, a Novel Adenosine A 1 Receptor Ligand from the Root of Salvia miltiorrhiza” (J Nat Prod, 1996)",
  "biological_target": "T1, Adenosine receptor A1 (Bos taurus, UniProt P28190)",
  "T1 sequence (P28190 whole entry)": "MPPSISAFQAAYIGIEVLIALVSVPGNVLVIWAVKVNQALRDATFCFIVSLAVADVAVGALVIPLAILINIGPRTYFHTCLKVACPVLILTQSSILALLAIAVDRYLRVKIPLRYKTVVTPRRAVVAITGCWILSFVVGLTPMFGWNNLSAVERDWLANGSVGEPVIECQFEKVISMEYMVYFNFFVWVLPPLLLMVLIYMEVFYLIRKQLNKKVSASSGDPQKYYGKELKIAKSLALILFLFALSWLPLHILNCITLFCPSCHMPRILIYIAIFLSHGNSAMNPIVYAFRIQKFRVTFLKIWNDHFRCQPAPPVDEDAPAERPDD",
  "assay": "Displacement of [3H]phenylisopropyladenosine from adenosine A1 receptor in bovine cerebral cortex membrane",
  "type": "cell membranes",
  "data": [
    {"smiles": "COc1cc(-c2oc3c(OC)cc(CCCO)cc3c2C=O)ccc1O", "values": [
      {"measurement": "IC50", "result": 17, "unit": "nM"}
    ]}
  ]
}
